From patent US10426850B2, “Collagen mimetic peptides for targeting collagen strands for in vitro and in vivo imaging and therapeutic use” (The Johns Hopkins University, priority 2011, dated 2019)
“Also recorded” adds a separate entry of the source.

Tests used:
fibronectin and laminin = assay: SDS-PAGE staining by heat activated fluorescent CMP, other ECM proteins; type: binding, bovine (fibronectin), murine (laminin); conditions: 6 μM, 2 μg protein per lane
Text: Acid soluble rat-tail type I collagen, bovine type II collagen, and mouse type IV collagen were purchased from BD Bioscience (San Jose, Calif.). Complement component C1q from human serum, fibronectin from bovine plasma, and laminin from Engelbreth-Holm-Swarm murine sarcoma basement membrane were purchased from Sigma-Aldrich. ProMMP-1, and p-aminophenylmercuric acetate were acquired from EMD millipore. Human umbilical vein endothelial cells (HUVECs) and EGM-2 cell growth media were obtained from Lonza (Walkersville, Md.). Precast NuPAGE® Novex 4-12% Bis-Tris Gel (1.0 mm, 12 well), Novex® Sharp unstained protein standard, and SDS-PAGE running buffer, sample buffer, and other SDS-PAGE reagents were purchased from Life Technologies.
(§1) SDS-PAGE staining and imaging. Proteins were resolved on NuPAGE® Novex 4-12% bis-tris gels under denaturating conditions using an XCell SureLock™ Mini-Cell electrophoresis system (Life Technologies). NuPAGE® MOPS SDS running buffer containing 50 mM MOPS, 50 mM Tris Base, 0.1% SDS, and 1 mM EDTA (pH 7.7) was used. […] The fluorescence intensities of the protein bands were quantified using GE ImageQuant™ TL software. After fluorescence imaging, all gels were further stained with coomassie brilliant blue (CB) G-250 (Bio-Rad) for 2-3 hr followed by washing, and imaging under white light illumination using a Gel Doc EQ system (BioRad).

[1] = test system: whole cell lysate of human umbilical vein endothelial cells (HUVEC); assay: SDS-PAGE staining by heat activated fluorescent CMP, cell lysate; type: binding; conditions: 6 μM
Experimental: (§2) To prepare MMP-1 cleaved collagen chain fragments, proMMP-1 (1 μg) was activated by p-aminophenylmercuric acetate (1.1 mM) in 132.5 μL of TNC buffer (50 mM Tris-HCl, 0.15 M NaCl, 5 mM CaCl2, 0.02% NaN3, pH 7.5) at 37° C. for 3 hr, after which type I collagen (62.6 μg) was added to the activated MMP-1 solution and incubated at room temperature for at least 3 days. To obtain the cell lysate, confluent HUVECs cultured in EGM-2 media at 37° C. were lysed with lysis buffer (25 mM Tris-HCl, 0.5% Triton X-100, 200 mM NaCl, 2 mM EDTA, phosphatase and protease inhibitors; Roche Applied Science). The lysate solution was spun at 15,000 g for 15 min and the supernatant was collected. The recombinant streptococcal collagen-like protein Scl2.28CL was expressed and characterized following the methods introduced by Mohs et al. (J. Biol. Chem. 282, 29757-29765 (2007)).
as §1, with “Technologies).” for “Technologies). NuPAGE® MOPS SDS running buffer containing 50 mM MOPS, 50 mM Tris Base, 0.1% SDS, and 1 mM EDTA (pH 7.7) was used.”

[2] = test system: streptococcal collagen-like protein Scl2.28CL; assay: SDS-PAGE staining of collagen-like protein Scl2.28CL; type: binding, Streptococcus pyogenes; conditions: 6 μM, heat activated, 2.5 μg, gel fixed with glutaraldehyde
Experimental: as §2
as §1, with “Technologies).” for “Technologies). NuPAGE® MOPS SDS running buffer containing 50 mM MOPS, 50 mM Tris Base, 0.1% SDS, and 1 mM EDTA (pH 7.7) was used.”

[3] = CD refolding kinetics / triple helix folding rate of CMPs; type: physicochemical; conditions: after UV exposure; thermal quenching from 80° C. to 25° C.
Experimental: Circular dichroism spectroscopy. CD spectra were collected on JASCO 715 spectrophotometer equipped with a JASCO PTC-348 WI temperature controller and quartz cells (0.1 mm path length). CMP solutions (320 μL, 150 μM in 1×PBS) were stored at 4° C. for at least 24 hours before measurement. For photo-decaging, samples were exposed to 365 nm UV light for at least 30 minutes before the 4° C. incubation. The thermal melting studies were performed by measuring the ellipticity at 225 nm with 60° C./hr heating rate. Raw CD signal was normalized to mean residue ellipticity based on the peptide's length and concentration (Biopolymers 95:94-104 (2011)). Melting temperatures (Tm) were determined by fitting the mean residue ellipticity to a two-state model (Org Lett 8:4735-4738 (2006)). […] The CD spectra of intact and MMP-1 cleaved type I collagen (FIG. 12) was measured in 90 μg/mL protein solutions in 20 mM acetic acid buffer at 22° C. The 37° C. thermal stability profile (FIG. 2E, inset) was generated by monitoring the ellipticity at 222 nm immediately after transferring the cuvette to a temperature controlled cuvette holder pre-set to 37° C. The Tm values reported in this study are approximately 10° C. higher than the equilibrium Tm due to high heating rate (60° C./hr) (Biopolymers 73:682-688 (2004)).

type I collagen films = biological target: T1, type I collagen films (Rattus norvegicus, UniProt P02454+P02466); assay: Quantification of CF(GPO)9 bound on type I collagen films; type: binding; conditions: UV+, collagenase digestion, standard curve
T1 construct: Collagen solution (200 μL, 3.71 mg/mL, type I rat tail, BD Science); purchased BD Science; host or cells: rat tail
Experimental: Quantification of CF(GPO)9 (SEQ ID NO: 10) bound on type I collagen films. Following photo-induced binding, CMP-bound collagen films (e.g. the UV+ group of FIG. 10A) were digested with 200 μL of collagenase (Sigma, C0130) solutions (1 mg/mL) in TESCA buffer (50 mM TES buffer with 1.36 mM CaCl2, pH 7.4) for 1 hr at 37° C. The digested solutions were directly used for fluorescence measurement (ex: 489 nm, em: 533 nm). For the standard curve, a series of solutions containing known amounts of CF^NB(GPO)9 (SEQ ID NO: 4) (0 to 0.35 nmol) were applied to blank collagen films and air-dried, followed by collagenase digestion and fluorescence measurement as described above. The amount of bound CF(GPO)9 (SEQ ID NO: 10) was determined by comparing the fluorescence intensity of the digested collagen/CMP solutions with the standard curve, and the binding density was determined by dividing the amount bound by the area of the well. The experiment was performed in triplicate.

T1 sequence (P02454 152-1207 limits assumed): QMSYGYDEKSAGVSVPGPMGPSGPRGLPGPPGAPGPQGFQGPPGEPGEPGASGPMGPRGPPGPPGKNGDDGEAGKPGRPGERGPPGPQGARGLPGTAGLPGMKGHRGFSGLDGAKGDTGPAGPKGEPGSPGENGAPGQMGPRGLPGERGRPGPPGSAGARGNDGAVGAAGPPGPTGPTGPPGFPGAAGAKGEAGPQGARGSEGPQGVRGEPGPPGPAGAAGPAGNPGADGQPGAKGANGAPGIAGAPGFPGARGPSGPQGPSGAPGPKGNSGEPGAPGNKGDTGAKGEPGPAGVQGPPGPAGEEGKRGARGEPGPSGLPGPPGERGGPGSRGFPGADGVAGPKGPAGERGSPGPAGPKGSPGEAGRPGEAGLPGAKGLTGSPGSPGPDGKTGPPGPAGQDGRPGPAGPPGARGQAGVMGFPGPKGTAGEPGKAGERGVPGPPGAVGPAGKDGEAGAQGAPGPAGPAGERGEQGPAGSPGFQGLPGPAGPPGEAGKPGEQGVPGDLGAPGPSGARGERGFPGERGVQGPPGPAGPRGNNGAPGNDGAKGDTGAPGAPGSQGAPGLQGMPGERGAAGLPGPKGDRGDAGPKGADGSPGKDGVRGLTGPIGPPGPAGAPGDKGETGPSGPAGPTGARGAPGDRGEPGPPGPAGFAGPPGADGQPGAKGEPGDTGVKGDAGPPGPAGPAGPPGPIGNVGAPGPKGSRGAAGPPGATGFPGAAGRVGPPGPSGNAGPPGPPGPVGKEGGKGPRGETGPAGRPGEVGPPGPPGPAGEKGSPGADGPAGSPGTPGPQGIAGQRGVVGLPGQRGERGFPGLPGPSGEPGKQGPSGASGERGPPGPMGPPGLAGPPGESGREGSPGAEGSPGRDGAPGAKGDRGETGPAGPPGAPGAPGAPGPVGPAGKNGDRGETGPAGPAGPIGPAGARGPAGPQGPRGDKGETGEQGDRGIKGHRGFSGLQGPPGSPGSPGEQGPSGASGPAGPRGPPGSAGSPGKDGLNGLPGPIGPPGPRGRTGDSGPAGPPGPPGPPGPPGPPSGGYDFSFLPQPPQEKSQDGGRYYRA
T1 sequence (P02466 86-1125 limits assumed): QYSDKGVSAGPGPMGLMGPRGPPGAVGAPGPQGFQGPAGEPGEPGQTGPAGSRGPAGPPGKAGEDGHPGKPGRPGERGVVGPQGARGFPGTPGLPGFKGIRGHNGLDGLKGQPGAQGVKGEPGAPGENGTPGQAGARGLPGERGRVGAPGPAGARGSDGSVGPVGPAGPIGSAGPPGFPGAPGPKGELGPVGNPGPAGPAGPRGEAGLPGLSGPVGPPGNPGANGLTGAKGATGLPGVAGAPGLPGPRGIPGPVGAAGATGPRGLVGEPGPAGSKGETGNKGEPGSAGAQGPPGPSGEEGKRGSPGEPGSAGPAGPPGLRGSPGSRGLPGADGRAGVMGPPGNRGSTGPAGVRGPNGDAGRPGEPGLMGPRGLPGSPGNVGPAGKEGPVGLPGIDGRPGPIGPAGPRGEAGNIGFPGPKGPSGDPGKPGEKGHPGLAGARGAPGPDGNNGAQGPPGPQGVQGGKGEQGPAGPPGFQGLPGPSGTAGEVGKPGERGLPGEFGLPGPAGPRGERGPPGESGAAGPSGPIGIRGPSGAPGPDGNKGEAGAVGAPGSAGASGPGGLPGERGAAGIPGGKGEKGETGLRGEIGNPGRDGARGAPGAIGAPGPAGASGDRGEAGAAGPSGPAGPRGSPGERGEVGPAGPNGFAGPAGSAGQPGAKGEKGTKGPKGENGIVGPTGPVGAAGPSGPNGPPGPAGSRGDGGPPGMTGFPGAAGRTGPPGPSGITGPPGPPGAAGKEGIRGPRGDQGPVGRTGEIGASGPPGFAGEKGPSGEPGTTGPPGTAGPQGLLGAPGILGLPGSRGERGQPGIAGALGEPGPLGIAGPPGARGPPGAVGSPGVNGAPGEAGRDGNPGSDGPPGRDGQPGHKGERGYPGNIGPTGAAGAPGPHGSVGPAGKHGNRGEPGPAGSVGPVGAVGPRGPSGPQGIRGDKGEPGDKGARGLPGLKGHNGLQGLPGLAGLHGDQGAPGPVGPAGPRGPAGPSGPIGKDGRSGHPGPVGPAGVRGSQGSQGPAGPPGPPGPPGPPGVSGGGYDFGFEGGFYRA

Substance	staining of fibronectin and laminin bands (fibronectin and laminin)	staining of cell lysate protein bands [1]	staining of Scl2.28CL bands [2]	refolding kinetics (CD 225 nm) [3]	density of photo-induced CMP binding to intact collagen (type I collagen films)
CF-GGG-(GPO)9 [CF(GPO)9]	no affinity to fibronectin and laminin	no protein band was visualized	failed to stain; also recorded: almost no staining of the Scl2.28CL band		
CF-GGG-(GPO)4^NBGPO(GPO)4 [CF^NB(GPO)9]				fast refolding kinetics	0.56±0.03 nmol/cm^2
